The source of these data is patent US12329747B2, “Use of lipophilic beta-lactam antibiotics and carboxylate esters for the treatment of bacterial infections within citrus and other plant species” (priority 2019, dated 2025).

Where a name gives a salt, the structure may show the parent alone.

One data set concerns HLB. Particulars: cited from earlier work; for effect on HLB infected trees: spraying or common treatment, background statement.
For data set [1], the system named is Murcott mandarin clippings. Put plainly: Foliar application to citrus clippings, negative ESI mass spectrum of reservoir water after 24 hours. The following applies: 25 μmoles in 1:1 neem oil, 24 hour incubation; for penicillin G/V or metabolite peaks detected in reservoir water: negative ESI mass spectrum.
In another data set the test system is citrus leaves. The following applies: external application, background statement; cited from earlier work.
Another data set deals with Candidatus Liberibacter. The following applies: background statement, cited from earlier work; for effectiveness against the pathogenic bacteria: grafting method.
Data set [2] has as its system fire blight (Erwinia amylovera). The following applies: background statement; cited from earlier work.

Take `[Cu]` [Copper]: the “effect on HLB infected trees” value with HLB is recorded as “not been found to be effective”.

For `CCCCCCCCCC(=O)OCOC(=O)[C@@H]1N2C(=O)[C@@H](NC(=O)Cc3ccccc3)[C@H]2SC1(C)C` [product compound 5, (Decanoyloxy)methyl (2S,5R,6R)-3,3-dimethyl-7-oxo-6-(2-phenylacetamido)-4-thia-1-azabicyclo[3.2.0]heptane-2-carboxylate], in data set [1], the “hydrolysis of the ester into the active antibiotic by citrus tissue” value (“hydrolysis” for short) was “hydrolyzed into the active antibiotic”; the “penetration of waxy cuticle layer and epidermis to access the phloem” value (shortened to “penetration … to access the phloem”) was “affectively penetrate through the waxy cuticle layer and through the epidermis to access the phloem”; the “penicillin G/V or metabolite peaks detected in reservoir water” value was “base peaks in the mass spectrum corresponded to the active antibiotics”.

With `CC(C)(C)C(=O)OCOC(=O)[C@@H]1N2C(=O)[C@@H](NC(=O)Cc3ccccc3)[C@H]2SC1(C)C` [product compound 7, (Pivaloyloxy)methyl (2S,5R,6R)-3,3-dimethyl-7-oxo-6-(2-phenylacetamido)-4-thia-1-azabicyclo[3.2.0]heptane-2-carboxylate], in data set [1], the “hydrolysis” value is listed as “hydrolyzed into the active antibiotic”; the “penetration … to access the phloem” value was “affectively penetrate through the waxy cuticle layer and through the epidermis to access the phloem”; the “penicillin G/V or metabolite peaks detected in reservoir water” value was “base peaks in the mass spectrum corresponded to the active antibiotics”.

For phenoxymethylpenicillin (penicillin V), the “penetration of citrus leaves or stems” value with citrus leaves was “do not easily penetrate the waxy cuticle covering”. In the data set with Candidatus Liberibacter, the phytotoxicity result was “very little phytotoxicity” and the “effectiveness against the pathogenic bacteria” value is “extremely effective”.

As for `COC(=O)[C@@H]1N2C(=O)[C@@H](NC(=O)COc3ccccc3)[C@H]2SC1(C)C` [product compound 2, Methyl(2S,5R,6R)-3,3-dimethyl-7-oxo-6-(2-phenoxyacetamido)-4-thia-1-azabicyclo[3.2.0]heptane-2-carboxylate], in data set [1], the “hydrolysis” value is “not being successfully metabolized to the active antibiotic”; the “penetration … to access the phloem” value is “affectively penetrate through the waxy cuticle layer and through the epidermis to access the phloem”.

For the compound `COC(=O)[C@@H]1N2C(=O)[C@@H](NC(=O)Cc3ccccc3)[C@H]2SC1(C)C` [product compound 1, Methyl(2S,5R,6R)-3,3-dimethyl-7-oxo-6-(2-phenylacetamido)-4-thia-1-azabicyclo[3.2.0]heptane-2-carboxylate], in data set [1], the “hydrolysis” value was “not being successfully metabolized to the active antibiotic”; the “penetration … to access the phloem” value is “affectively penetrate through the waxy cuticle layer and through the epidermis to access the phloem”.

Take `CC(C)(C)C(=O)OCOC(=O)[C@@H]1N2C(=O)[C@@H](NC(=O)COc3ccccc3)[C@H]2SC1(C)C` [product compound 8, (Pivaloyloxy)methyl (2S,5R,6R)-3,3-dimethyl-7-oxo-6-(2-phenoxyacetamido)-4-thia-1-azabicyclo[3.2.0]heptane-2-carboxylate]: in data set [1], the “hydrolysis” value is “hydrolyzed into the active antibiotic”; the “penetration … to access the phloem” value is “affectively penetrate through the waxy cuticle layer and through the epidermis to access the phloem”; the “penicillin G/V or metabolite peaks detected in reservoir water” value is given as “base peaks in the mass spectrum corresponded to the active antibiotics”.

In the case of `[H]/N=C(/N)N[C@H]1[C@H](O)[C@@H](O)[C@H](O[C@@H]2O[C@@H](C)[C@](O)(C=O)[C@H]2O[C@@H]2O[C@@H](CO)[C@H](O)[C@@H](O)[C@@H]2NC)[C@@H](N/C(N)=N\[H])[C@@H]1O` [streptomycin sulfate], the “bactericidal or bacteriostatic action” value in data set [2] was “bactericidal”. The “effect on HLB infected trees” value in the data set with HLB is on record as “only marginally improved the health of trees”.

As for `CC1(C)S[C@@H]2[C@H](NC(=O)COc3ccccc3)C(=O)N2[C@H]1C(=O)OCc1ccccc1` [product compound 4, Benzyl(2S,5R,6R)-3,3-dimethyl-7-oxo-6-(2-phenoxyacetamido)-4-thia-1-azabicyclo[3.2.0]heptane-2-carboxylate], in data set [1], the “penetration … to access the phloem” value was “substantially reduce permeability”; the “penicillin G/V or metabolite peaks detected in reservoir water” value is listed as “no recognizable metabolite peaks were detected”.

`CC[C@H]1CCC[C@H](O[C@H]2CC[C@H](N(C)C)[C@@H](C)O2)[C@@H](C)C(=O)C2=C[C@@H]3[C@@H](C=C[C@@H]4C[C@@H](O[C@@H]5O[C@@H](C)[C@H](OC)[C@@H](OC)[C@H]5OC)C[C@@H]34)[C@@H]2CC(=O)O1` [Spinosyn A]: the “penetration of citrus leaves or stems” value in the data set with citrus leaves is reported as “known to readily penetrate citrus leaves”.

In the case of `CC1(C)S[C@@H]2[C@H](NC(=O)Cc3ccccc3)C(=O)N2[C@H]1C(=O)OCc1ccccc1` [product compound 3, Benzyl(2S,5R,6R)-3,3-dimethyl-7-oxo-6-(2-phenylacetamido)-4-thia-1-azabicyclo[3.2.0]heptane-2-carboxylate], in data set [1], the “penetration … to access the phloem” value was “substantially reduce permeability”; the “penicillin G/V or metabolite peaks detected in reservoir water” value was “no recognizable metabolite peaks were detected”.

benzylpenicillin (penicillin G): the “penetration of citrus leaves or stems” value in the data set on citrus leaves is “do not easily penetrate the waxy cuticle covering”. Besides, the “effect on tree health” value with HLB (direct injected into infected citrus trees, alone or in combinations with other antibiotics) is “marked improvement”. Moreover, in the data set on Candidatus Liberibacter, the phytotoxicity result is “very little phytotoxicity” and the “effectiveness against the pathogenic bacteria” value was “extremely effective”.

In the case of `CCCCCCCCCC(=O)OCOC(=O)[C@@H]1N2C(=O)[C@@H](NC(=O)COc3ccccc3)[C@H]2SC1(C)C` [product compound 6, (Decanoyloxy)methyl(2S,5R,6R)-3,3-dimethyl-7-oxo-6-(2-phenoxyacetamido)-4-thia-1-azabicyclo[3.2.0]heptane-2-carboxylate], in data set [1], the “hydrolysis” value was “hydrolyzed into the active antibiotic”; the “penetration … to access the phloem” value was “affectively penetrate through the waxy cuticle layer and through the epidermis to access the phloem”; the “penicillin G/V or metabolite peaks detected in reservoir water” value is given as “base peaks in the mass spectrum corresponded to the active antibiotics”.
